Key:
redroot pigweed [1] = test: Test Example 4: herbicidal effect by soil treatment (Table 19, symbol N); assay type: in vivo, redroot pigweed (Amaranthus retroflexus); conditions: amount of applied herbicide 320 g/ha
Procedure, shortened: (§1)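 Herbicidal effect was rated 3 weeks after treatment, using the scoring criteria of an earlier test. The compound, formulated as an emulsion and diluted in water to a set herbicide amount, had been sprayed uniformly on soil over freshly sown seeds. Growth took place in a greenhouse at 25° C. to 30° C.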

false cleavers = test: Test Example 5: herbicidal effect by foliage application, plastic box (Table 20, symbol Q); assay type: in vivo, false cleavers (Galium spurium); conditions: foliage application, evaluated three weeks after application
Procedure, shortened: (§2)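 Foliar spray test: emulsion formulation diluted in water to a set application rate, sprayed onto 14-day-old plants raised in diluvial soil at 25° C to 30° C under glass. Both herbicidal effect and crop effect rated visually three weeks later.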

blackgrass [2] = test: Test Example 5: herbicidal effect by foliage application, plastic box (Table 20, symbol J); assay type: in vivo, blackgrass (Alopecurus myosuroides); conditions: foliage application, evaluated three weeks after application
Procedure, shortened: as §2

barnyard grass [3] = test: Test Example 3: herbicidal effect by foliage application, Wagner pot (Table 18, symbol H); assay type: in vivo, barnyard grass (Echinochloa crus-galli); conditions: amount of applied herbicide 320 g/ha
Procedure, shortened: (§3)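 Plants were sown in alluvial soil held under 0.1–0.5 cm standing water and grown 14 days in a greenhouse at 25–30 °C. An emulsifiable formulation, water-diluted to the set dose, was then sprayed onto the foliage, and effects were scored three weeks later using previously defined criteria.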

velvetleaf [4] = test: Test Example 4: herbicidal effect by soil treatment (Table 19, symbol M); assay type: in vivo, velvetleaf (Abutilon theophrasti); conditions: amount of applied herbicide 320 g/ha
Procedure, shortened: as §1

velvetleaf [5] = test: Test Example 5: herbicidal effect by foliage application, plastic box (Table 20, symbol M); assay type: in vivo, velvetleaf (Abutilon theophrasti); conditions: foliage application, evaluated three weeks after application
Procedure, shortened: as §2

wild oat [6] = test: Test Example 4: herbicidal effect by soil treatment (Table 19, symbol I); assay type: in vivo, wild oat (Avena fatua); conditions: amount of applied herbicide 320 g/ha
Procedure, shortened: as §1

persian speedwell [7] = test: Test Example 5: herbicidal effect by foliage application, plastic box (Table 20, symbol R); assay type: in vivo, Persian speedwell (Veronica persica); conditions: foliage application, evaluated three weeks after application
Procedure, shortened: as §2

redroot pigweed [8] = test: Test Example 5: herbicidal effect by foliage application, plastic box (Table 20, symbol N); assay type: in vivo, redroot pigweed (Amaranthus retroflexus); conditions: foliage application, evaluated three weeks after application
Procedure, shortened: as §2

windgrass [9] = test: Test Example 5: herbicidal effect by foliage application, plastic box (Table 20, symbol L); assay type: in vivo, windgrass (Apera spica-venti); conditions: foliage application, evaluated three weeks after application
Procedure, shortened: as §2

Italian ryegrass [10] = test: Test Example 4: herbicidal effect by soil treatment (Table 19, symbol K); assay type: in vivo, Italian ryegrass (Lolium multiflorum); conditions: amount of applied herbicide 320 g/ha
Procedure, shortened: as §1

lambsquarters [11] = test: Test Example 4: herbicidal effect by soil treatment (Table 19, symbol O); assay type: in vivo, lambsquarters (Chenopodium album); conditions: amount of applied herbicide 320 g/ha
Procedure, shortened: as §1

southern crabgrass [12] = test: Test Example 5: herbicidal effect by foliage application, plastic box (Table 20, symbol F); assay type: in vivo, southern crabgrass (Digitaria ciliaris); conditions: foliage application, evaluated three weeks after application
Procedure, shortened: as §2

southern crabgrass [13] = test: Test Example 4: herbicidal effect by soil treatment (Table 19, symbol F); assay type: in vivo, southern crabgrass (Digitaria ciliaris); conditions: amount of applied herbicide 320 g/ha
Procedure, shortened: as §1

green foxtail [14] = test: Test Example 5: herbicidal effect by foliage application, plastic box (Table 20, symbol G); assay type: in vivo, green foxtail (Setaria viridis); conditions: foliage application, evaluated three weeks after application
Procedure, shortened: as §2

green foxtail [15] = test: Test Example 4: herbicidal effect by soil treatment (Table 19, symbol G); assay type: in vivo, green foxtail (Setaria viridis); conditions: amount of applied herbicide 320 g/ha
Procedure, shortened: as §1

chickweed [16] = test: Test Example 4: herbicidal effect by soil treatment (Table 19, symbol P); assay type: in vivo, common chickweed (Stellaria media); conditions: amount of applied herbicide 320 g/ha
Procedure, shortened: as §1

Chinese sprangletop = test: Test Example 3: herbicidal effect by foliage application, Wagner pot (Table 18, symbol D); assay type: in vivo, chinese sprangletop (Leptochloa chinensis); conditions: amount of applied herbicide 320 g/ha
Procedure, shortened: as §3

lambsquarters [17] = test: Test Example 5: herbicidal effect by foliage application, plastic box (Table 20, symbol O); assay type: in vivo, lambsquarters (Chenopodium album); conditions: foliage application, evaluated three weeks after application
Procedure, shortened: as §2

persian speedwell [18] = test: Test Example 4: herbicidal effect by soil treatment (Table 19, symbol R); assay type: in vivo, Persian speedwell (Veronica persica); conditions: amount of applied herbicide 320 g/ha
Procedure, shortened: as §1

wild oat [19] = test: Test Example 5: herbicidal effect by foliage application, plastic box (Table 20, symbol I); assay type: in vivo, wild oat (Avena fatua); conditions: foliage application, evaluated three weeks after application
Procedure, shortened: as §2

Italian ryegrass [20] = test: Test Example 5: herbicidal effect by foliage application, plastic box (Table 20, symbol K); assay type: in vivo, Italian ryegrass (Lolium multiflorum); conditions: foliage application, evaluated three weeks after application
Procedure, shortened: as §2

blackgrass [21] = test: Test Example 4: herbicidal effect by soil treatment (Table 19, symbol J); assay type: in vivo, blackgrass (Alopecurus myosuroides); conditions: amount of applied herbicide 320 g/ha
Procedure, shortened: as §1

chickweed [22] = test: Test Example 5: herbicidal effect by foliage application, plastic box (Table 20, symbol P); assay type: in vivo, common chickweed (Stellaria media); conditions: foliage application, evaluated three weeks after application
Procedure, shortened: as §2

barnyard grass [23] = test: Test Example 5: herbicidal effect by foliage application, plastic box (Table 20, symbol H); assay type: in vivo, barnyard grass (Echinochloa crus-galli); conditions: foliage application, evaluated three weeks after application
Procedure, shortened: as §2

windgrass [24] = test: Test Example 4: herbicidal effect by soil treatment (Table 19, symbol L); assay type: in vivo, windgrass (Apera spica-venti); conditions: amount of applied herbicide 320 g/ha
Procedure, shortened: as §1

barnyard grass [25] = test: Test Example 4: herbicidal effect by soil treatment (Table 19, symbol H); assay type: in vivo, barnyard grass (Echinochloa crus-galli); conditions: amount of applied herbicide 320 g/ha
Procedure, shortened: as §1

rice flat sedge = test: Test Example 3: herbicidal effect by foliage application, Wagner pot (Table 18, symbol E); assay type: in vivo, rice flat sedge (Cyperus iria); conditions: amount of applied herbicide 320 g/ha
Procedure, shortened: as §3

## CCCOc1cccc(-c2sc3ccc(F)cc3c2-c2c(OC(=O)CCC)c(C)nn(C)c2=O)c1 [2-214]
Redroot pigweed [1]
  N: redroot pigweed, herbicidal effect rating: 5 (Herbicidal rate of 90% or more (almost completely withered))
False cleavers; 320 g/ha
  herbicidal effect on Q: false cleavers (criteria 0-5): 2 (Herbicidal rate of 20% or more and less than 40%)
Blackgrass [2]; 320 g/ha
  herbicidal effect on J: blackgrass (criteria 0-5): 0 (Herbicidal rate of 5% or less (almost no effect))
Barnyard grass [3]
  herbicidal effect on H: barnyard grass: 3 (Herbicidal rate of 40% or more and less than 70%)
Velvetleaf [4]
  M: velvetleaf, herbicidal effect rating: 3 (Herbicidal rate of 40% or more and less than 70%)
Velvetleaf [5]; 320 g/ha
  herbicidal effect on M: velvetleaf (criteria 0-5): 3 (Herbicidal rate of 40% or more and less than 70%)
Wild oat [6]
  I: wild oat, herbicidal effect rating: 0 (Herbicidal rate of 5% or less (almost no effect))
Persian speedwell [7]; 320 g/ha
  herbicidal effect on R: persian speedwell (criteria 0-5): 5 (Herbicidal rate of 90% or more (almost completely withered))
Redroot pigweed [8]; 320 g/ha
  herbicidal effect on N: redroot pigweed (criteria 0-5): 4 (Herbicidal rate of 70% or more and less than 90%)
Windgrass [9]; 320 g/ha
  herbicidal effect on L: windgrass (criteria 0-5): 0 (Herbicidal rate of 5% or less (almost no effect))
Italian ryegrass [10]
  K: Italian ryegrass, herbicidal effect rating: 0 (Herbicidal rate of 5% or less (almost no effect))
Lambsquarters [11]
  O: lambsquarters, herbicidal effect rating: 2 (Herbicidal rate of 20% or more and less than 40%)
Southern crabgrass [12]; 320 g/ha
  herbicidal effect on F: southern crabgrass (criteria 0-5): 4 (Herbicidal rate of 70% or more and less than 90%)
Southern crabgrass [13]
  F: southern crabgrass, herbicidal effect rating: 4 (Herbicidal rate of 70% or more and less than 90%)
Green foxtail [14]; 320 g/ha
  herbicidal effect on G: green foxtail (criteria 0-5): 4 (Herbicidal rate of 70% or more and less than 90%)
Green foxtail [15]
  G: green foxtail, herbicidal effect rating: 4 (Herbicidal rate of 70% or more and less than 90%)
Chickweed [16]
  P: chickweed, herbicidal effect rating: 3 (Herbicidal rate of 40% or more and less than 70%)
Chinese sprangletop
  herbicidal effect on D: Chinese sprangletop: 3 (Herbicidal rate of 40% or more and less than 70%)
Lambsquarters [17]; 320 g/ha
  herbicidal effect on O: lambsquarters (criteria 0-5): 2 (Herbicidal rate of 20% or more and less than 40%)
Persian speedwell [18]
  R: persian speedwell, herbicidal effect rating: 5 (Herbicidal rate of 90% or more (almost completely withered))
Wild oat [19]; 320 g/ha
  herbicidal effect on I: wild oat (criteria 0-5): 0 (Herbicidal rate of 5% or less (almost no effect))
Italian ryegrass [20]; 320 g/ha
  herbicidal effect on K: Italian ryegrass (criteria 0-5): 1 (Herbicidal rate of 5% or more and less than 20%)
Blackgrass [21]
  J: blackgrass, herbicidal effect rating: 0 (Herbicidal rate of 5% or less (almost no effect))
Chickweed [22]; 320 g/ha
  herbicidal effect on P: chickweed (criteria 0-5): 5 (Herbicidal rate of 90% or more (almost completely withered))
Barnyard grass [23]; 320 g/ha
  herbicidal effect on H: barnyard grass (criteria 0-5): 1 (Herbicidal rate of 5% or more and less than 20%)
Windgrass [24]
  L: windgrass, herbicidal effect rating: 0 (Herbicidal rate of 5% or less (almost no effect))
Barnyard grass [25]
  H: barnyard grass, herbicidal effect rating: 3 (Herbicidal rate of 40% or more and less than 70%)
Rice flat sedge
  herbicidal effect on E: rice flat sedge: 4 (Herbicidal rate of 70% or more and less than 90%)

## Cc1nn(C)c(=O)c(-c2c(-c3ccc(OC(F)F)cc3)sc3ccc(F)cc23)c1OS(=O)(=O)C(C)C [2-309]
Redroot pigweed [1]
  herbicidal effect on N: redroot pigweed: 5 (Herbicidal rate of 90% or more (almost completely withered))
False cleavers; AAH 320 g/ha
  Q: false cleavers, herbicidal effect (criteria 0-5): 4 (Herbicidal rate of 70% or more and less than 90%)
Blackgrass [2]; AAH 320 g/ha
  J: blackgrass, herbicidal effect (criteria 0-5): 3 (Herbicidal rate of 40% or more and less than 70%)
Barnyard grass [3]
  herbicidal effect on H: barnyard grass: 5 (Herbicidal rate of 90% or more (almost completely withered))
Velvetleaf [4]
  herbicidal effect on M: velvetleaf: 1 (Herbicidal rate of 5% or more and less than 20%)
Velvetleaf [5]; AAH 320 g/ha
  M: velvetleaf, herbicidal effect (criteria 0-5): 5 (Herbicidal rate of 90% or more (almost completely withered))
Wild oat [6]
  herbicidal effect on I: wild oat: 0 (Herbicidal rate of 5% or less (almost no effect))
Persian speedwell [7]; AAH 320 g/ha
  R: persian speedwell, herbicidal effect (criteria 0-5): 5 (Herbicidal rate of 90% or more (almost completely withered))
Redroot pigweed [8]; AAH 320 g/ha
  N: redroot pigweed, herbicidal effect (criteria 0-5): 5 (Herbicidal rate of 90% or more (almost completely withered))
Windgrass [9]; AAH 320 g/ha
  L: windgrass, herbicidal effect (criteria 0-5): 1 (Herbicidal rate of 5% or more and less than 20%)
Italian ryegrass [10]
  herbicidal effect on K: Italian ryegrass: 0 (Herbicidal rate of 5% or less (almost no effect))
Lambsquarters [11]
  herbicidal effect on O: lambsquarters: 4 (Herbicidal rate of 70% or more and less than 90%)
Southern crabgrass [12]; AAH 320 g/ha
  F: southern crabgrass, herbicidal effect (criteria 0-5): 0 (Herbicidal rate of 5% or less (almost no effect))
Southern crabgrass [13]
  herbicidal effect on F: southern crabgrass: 0 (Herbicidal rate of 5% or less (almost no effect))
Green foxtail [14]; AAH 320 g/ha
  G: green foxtail, herbicidal effect (criteria 0-5): 5 (Herbicidal rate of 90% or more (almost completely withered))
Green foxtail [15]
  herbicidal effect on G: green foxtail: 0 (Herbicidal rate of 5% or less (almost no effect))
Chickweed [16]
  herbicidal effect on P: chickweed: 3 (Herbicidal rate of 40% or more and less than 70%)
Chinese sprangletop
  herbicidal effect on D: Chinese sprangletop: 3 (Herbicidal rate of 40% or more and less than 70%)
Lambsquarters [17]; AAH 320 g/ha
  O: lambsquarters, herbicidal effect (criteria 0-5): 5 (Herbicidal rate of 90% or more (almost completely withered))
Persian speedwell [18]
  herbicidal effect on R: persian speedwell: 5 (Herbicidal rate of 90% or more (almost completely withered))
Wild oat [19]; AAH 320 g/ha
  I: wild oat, herbicidal effect (criteria 0-5): 1 (Herbicidal rate of 5% or more and less than 20%)
Italian ryegrass [20]; AAH 320 g/ha
  K: Italian ryegrass, herbicidal effect (criteria 0-5): 4 (Herbicidal rate of 70% or more and less than 90%)
Blackgrass [21]
  herbicidal effect on J: blackgrass: 0 (Herbicidal rate of 5% or less (almost no effect))
Chickweed [22]; AAH 320 g/ha
  P: chickweed, herbicidal effect (criteria 0-5): 5 (Herbicidal rate of 90% or more (almost completely withered))
Barnyard grass [23]; AAH 320 g/ha
  H: barnyard grass, herbicidal effect (criteria 0-5): 5 (Herbicidal rate of 90% or more (almost completely withered))
Windgrass [24]
  herbicidal effect on L: windgrass: 0 (Herbicidal rate of 5% or less (almost no effect))
Barnyard grass [25]
  herbicidal effect on H: barnyard grass: 0 (Herbicidal rate of 5% or less (almost no effect))
Rice flat sedge
  herbicidal effect on E: rice flat sedge: 5 (Herbicidal rate of 90% or more (almost completely withered))
